Source: patent publication US20230285405A1, “Pharmaceuticals for Treating or Preventing Nidoviruses and Picornaviruses” (priority 2020, published 2023)
Where a name gives a salt, the structure may show the parent alone. Read-outs that look alike come from different tables or passages of the source.

Tests used:
A549-mRuby cells = assay: Drug screening: effect on cell growth (cell number day 4 / day 0); conditions: 10 μM drug; for Growth_1: number of cells at day 4 divided by number of cells at day 0 / toxic_1: repeat #1; for Growth_2: number of cells at day 4 divided by number of cells at day 0 / toxic_2: repeat #2
Procedure: A549-mRuby cells were seeded (3,000 cells per well) in nine 384-well plates using Multidrop combi. Cells were seeded in a final volume of 30 μl with DMEM+10% BCS. The following day, 20 μl of OC43 were added (MOI 0.3) and incubated at 33° C., 5% CO2 for 1 hour. 50 nl from the Selleck FDA-approved drug library (cat #L1300, Selleck) were added (1:1,000 dilution). Two columns (32 wells) were left uninfected and two columns were treated with DMSO and virus (no drug control). Cells were imaged using the IncuCyte S3 to measure cell numbers at day 0. Cells were incubated for 4 days at 33° C., 5% CO2 and were stained for OC43 nucleoprotein. All the following steps were performed at room temperature. […] The screen was performed twice.
(§1) The following parameters were extracted from the images: number of cells at day 0, number of cells at day 4 and total OC43 staining intensity at day 4. For analysis, OC43 staining intensity was normalized to the number of cells in the well and further normalized to the mean of the no drug controls, which was set to 100. […] For each plate, a drug was considered as a putative hit if it reduced OC43 staining by over 3 standard deviations from the mean of the no drug controls. Drugs were considered hits if they were not toxic and reduced OC43 staining by over 3 standard deviations in both repeats.
(§2) A library of 1,900 clinically used drugs was screened, the drugs either approved for human use or having extensive safety data in humans (Phase 2 or 3 clinical trials), for their ability to inhibit OC43 infection of the human lung epithelial cell line A549 (expressing an H2B-mRuby nuclear reporter). One day after plating, cells were infected at an MOI of 0.3, incubated at 33° C. for 1 hour and drugs were added to a final concentration of 10 μM. Cells were then incubated at 33° C. for 4 days, fixed and stained for the presence of the viral nucleoprotein. The cells were imaged at day 0 (following drug addition) and day 4 (after staining) to determine the drugs effect on cell growth and OC43 infection.

OC43 = assay: Drug screening: OC43 nucleoprotein staining in infected A549-mRuby cells; type: cell-based, human beta coronavirus OC43
Procedure: A549-mRuby cells were seeded (3,000 cells per well) in nine 384-well plates using Multidrop combi. Cells were seeded in a final volume of 30 μl with DMEM+10% BCS. The following day, 20 μl of OC43 were added (MOI 0.3) and incubated at 33° C., 5% CO2 for 1 hour. 50 nl from the Selleck FDA-approved drug library (cat #L1300, Selleck) were added (1:1,000 dilution). Two columns (32 wells) were left uninfected and two columns were treated with DMSO and virus (no drug control). Cells were imaged using the IncuCyte S3 to measure cell numbers at day 0. Cells were incubated for 4 days at 33° C., 5% CO2 and were stained for OC43 nucleoprotein. All the following steps were performed at room temperature. Cells were fixed in 50 μl 4% PFA/PBS for 15 min, blocked with 50 μl 10% BSA+0.5% Triton X-100 in PBS for 30 minutes, stained with 50 μl anti-OC43 (cat #MAB9013, Milipore) diluted 1:2,000 in 2% BSA+0.1% Triton X-100 in PBS for 1 hour, washed with 50 μl PBS three times, stained with anti-mouse-AlexaFluor488 diluted 1:1,000 in 2% BSA+0.1% Triton X-100 in PBS for 1 hour, washed with 50 μl PBS three times and imaged on the IncuCyte S3 (day 4). The screen was performed twice.
as §1, §2

[1] = 10 μM drug, MOI 0.3, 4 days, OC43 staining normalized to no-drug controls, mean of the two screen repeats
[2] = 10 μM drug, MOI 0.3, 4 days, normalized to no-drug controls in the same plate, repeat #1
[3] = 10 μM drug, MOI 0.3, 4 days, normalized to no-drug controls in the same plate, repeat #2
[4] = Betacoronavirus 1, OC43, 96 h, 10 μM drug, MOI 0.3, 4 days, normalized to no-drug controls in the same plate, repeat #1, read-out: OC43_1: % staining of OC43 in screen repeat #1
[5] = Betacoronavirus 1, OC43, 96 h, 10 μM drug, MOI 0.3, 4 days, normalized to no-drug controls in the same plate, repeat #2, read-out: OC43_2: % staining of OC43 in screen repeat #2
[6] = Betacoronavirus 1, OC43, 96 h, 10 μM drug, MOI 0.3, 4 days, OC43 staining normalized to no-drug controls, mean of the two screen repeats, read-out: OC43_mean

Row | Compound | Growth_1: number of cells at day 4 divided by number of cells at day 0 (A549-mRuby cells) | toxic_1 (A549-mRuby cells) | Growth_2: number of cells at day 4 divided by number of cells at day 0 (A549-mRuby cells) | toxic_2 (A549-mRuby cells) | OC43_mean (OC43; [1]) | OC43_1: % staining of OC43 in screen repeat #1 (OC43; [2]) | OC43_2: % staining of OC43 in screen repeat #2 (OC43; [3]) | hit_1 (OC43; 10 μM drug, repeat #1) | hit_2 (OC43; 10 μM drug, repeat #2) | activity at 10 µM (OC43; [4]) | activity at 10 µM (OC43; [5]) | activity at 10 µM (OC43; Betacoronavirus 1, OC43, 96 h, read-out: OC43_mean) | activity at 10 µM (OC43; [6]) | activity at 10 µM (OC43; Betacoronavirus 1, 96 h, 10 μM drug, MOI 0.3, 4 days, OC43 staining normalized to no-drug controls, mean of the two screen repeats, read-out: OC43_mean)
1 | COc1ccc(NC(=O)c2ccc(C(=N)N(C)C)cc2)c(C(=O)Nc2ccc(Cl)cn2)c1 [Betrixaban] | 5.3 | 0 | 5.5 | 0 | 32.0% | 30.2% | 33.7% | 1 | 1 |  |  |  |  | 
2 | CCN(CCCc1ccccc1)CCCc1ccccc1 [Alverine Citrate] | 3.7 | 0 | 4.0 | 0 |  |  |  | 1 | 1 | 22.1% | 35.3% | 28.7% |  | 
3 | CC(C)(C)c1nc(-c2cccc(NS(=O)(=O)c3c(F)cccc3F)c2F)c(-c2ccnc(N)n2)s1 [Dabrafenib (GSK2118436), Dabrafenib] | 3.9 | 0 | 5.5 | 0 |  |  |  | 1 | 1 | 36.3% | 47% |  | 41.6% | 
4 | CCCCCCCC(=O)N[C@H](CN1CCCC1)[C@H](O)c1ccc2c(c1)OCCO2 [Eliglustat] | 5.5 | 0 | 4.8 | 0 |  |  |  | 1 | 1 | 22.7% | 20.4% |  |  | 21.5%
5 | CCCOC(C(=O)OC1CCN(C)CC1)(c1ccccc1)c1ccccc1 [Propiverine hydrochloride] | 3.0 | 0 | 2.2 | 0 |  |  |  | 1 | 1 | 29.5% | 25.2% |  | 27.3% | 
6 | OCCN1CCN(CCCN2c3ccccc3Sc3ccc(Cl)cc32)CC1 [Perphenazine] | 2.2 | 0 | 2.5 | 0 |  |  |  | 1 | 1 | 59.8% | 25.8% |  | 42.8% | 
7 | COc1cc(N)c(Cl)cc1C(=O)NC1CCN(CCCOc2ccc(F)cc2)CC1OC (stereo not shown) [Cisapride] | 4.1 | 0 | 4.5 | 0 |  |  |  | 1 | 1 | 28.5% | 22.1% |  | 25.3% | 
8 | Alimemazine Tartrate | 2.6 | 0 | 2.2 | 0 | 40.8% | 47.9% | 33.7% | 1 | 1 |  |  |  |  | 
9 | COc1cccc(CCc2ccccc2OCC(CN(C)C)OC(=O)CCC(=O)O)c1 (stereo not shown) [Sarpogrelate hydrochloride] | 5.0 | 0 | 5.4 | 0 |  |  |  | 1 | 1 | 26.8% | 24.9% |  | 25.9% | 
10 | CN1CCC(=C2c3ccccc3C=Cc3ccccc32)CC1 [Cyproheptadine HCl] | 3.8 | 0 | 3.0 | 0 |  |  |  | 1 | 1 | 22.8% | 31.2% |  | 27% | 
11 | CC(N)C12CC3CC(CC(C3)C1)C2 (stereo not shown) [Rimantadine Hydrochloride] | 4.4 | 0 | 5.1 | 0 |  |  |  | 1 | 1 | 50.6% | 54.6% |  | 52.6% | 
12 | CO[C@H]1/C=C/O[C@@]2(C)Oc3c(C)c(O)c4c(c3C2=O)C2=NC3(CCN(CC(C)C)CC3)NC2=C(NC(=O)/C(C)=C\C=C\[C@H](C)[C@H](O)[C@@H](C)[C@@H](O)[C@@H](C)[C@H](OC(C)=O)[C@@H]1C)C4=O [Rifabutin] | 5.5 | 0 | 5.3 | 0 |  |  |  | 1 | 1 | 25.8% | 56.4% |  | 41.1% | 
13 | C=C[C@H]1C[N@@]2CC[C@H]1C[C@@H]2[C@@H](O)c1ccnc2ccc(OC)cc12 [Quinidine sulfate] |  |  |  |  |  |  |  | 1 | 1 | 25.1% | 47.9% |  |  | 
